According to US9434687B2, “Detection of synthetic cannabinoids” (priority 2011, dated 2016):

Key:
Assay type in all cases: binding, sheep
[1] = tested on: IgG fraction of antiserum raised to Immunogen I; details: Antibody to Immunogen I; cross-reactants at 100 ng/ml; 1000 ng/ml; standard JWH-018
Procedure: (§1) An aqueous solution of each immunogen was formulated with Freund's Complete Adjuvant (FCA) to form an emulsion consisting of 2 mg/ml*immunogen in 50% (v/v) FCA. Three sheep were immunised with this emulsion (1° immunisation), 0.25 ml being intramuscularly injected at each of four sites in the flank of each animal. Subsequent immunizations (boosts) contained 1 mg/ml*immunogen. All boosts were emulsified in 50% (v/v) Freund's Incomplete Adjuvant (FIA) and were administered in the same manner as the 1° immunisation, at monthly intervals. Blood sampling took place 7 to 14 days after each boost. *The general procedure for immunogen administration is outlined above, however, it was necessary to deviate from this protocol in some cases, due to reduced immunogen concentrations (Immunogens II, IV, VII and VIII) and/or amount available (Immunogen VIII). Any deviations from the protocol described are outlined in Table 5 below and highlighted in bold.
(§2) The wells of an enhanced binding 96 well polystyrene microtiter plate were coated with IgG fraction of antiserum raised to Immunogen I or II, diluted in 10 mM Tris, pH8.5 (125 μl/well). The appropriate antibody coating dilution was determined using standard ELISA checkerboard techniques. The plate was incubated overnight at 4° C., washed 4 times over 10 minutes with Tris buffered saline containing Tween 20 (TBST) and tapped dry. Standard solutions (JWH-018 for Immunogens I and II) were applied at 0, 0.625, 1.25, 2.5, 5, 10, 20 and 40 ng/ml and 50 μl of each was added to the appropriate wells. 75 μl of conjugate (appropriate hapten-HRP) diluted in Tris buffer (pH 7.2) containing EDTA, D-mannitol, sucrose, thimerosal and BSA, was added to each of the wells. The appropriate dilution of conjugate was also determined using standard ELISA checkerboard techniques. The plate was incubated at 25° C. for 1 hour. Excess unbound conjugate was removed by washing 6 times over a 10 minute period with TBST. 125 μl of tetramethylbenzidine (TMB) substrate solution was added to each well of the plate that was then incubated for 20 minutes in the dark at room temperature. The reaction was terminated by addition of 125 μl 0.2M H2SO4 to each well. The absorbance was then measured at 450 nm using a microtiter plate reader. The data are inputted to a computer program called ‘KC Junior’. It is a 4 parameter fit curve and allow the calculation of concentrations between the standard runs. This program is used to calculate the IC50s by dividing the 0 ng/ml OD value by 2 and obtaining the concentration value from the curve for this OD.
In a similar manner to that described above, the wells of a 96-well microtiter plate were coated with the IgG fraction of the antiserum raised to Immunogens I or II. Standard solutions (JWH-018 for Immunogen I and II) were applied at 0, 0.625, 1.25, 2.5, 5, 10, 20 and 40 ng/ml and conjugate was employed as detection reagent.
(§3) The data set out in Tables 7-10 are generated using antibodies raised against the indicated Immunogens in a competitive binding assay with the indicated tracers, using the indicated standards
(§4) In order to determine the specificity of the competitive ELISAs, standard solutions of a range of structurally similar synthetic cannabinoids and their metabolites were prepared in TBST.
(§5) Using the calibration curves generated and employing a single level of cross reactants, these were used to determine the cross-reactivity of each immunoassay with these substances. These are the standards used for the IC50 and cross-reactivity data generation: […]

[2] = tested on: IgG fraction of antiserum raised to Immunogen II; test: Competitive ELISA, antibody RS1833B12 to Immunogen II, tracer ESC4555 (Example 36); details: Antibody to Immunogen II; cross-reactants at 100 ng/ml; 1000 ng/ml; standard JWH-018
Procedure: as §1
as §2, with “The” for “The wells of an enhanced binding 96 well polystyrene microtiter plate were coated with IgG fraction of antiserum raised to Immunogen I or II, diluted in 10 mM Tris, pH8.5 (125 μl/well). The”, “Standard solutions (JWH-018 for Immunogens I and II) were applied at 0, 0.625, 1.25, 2.5, 5, 10, 20 and 40 ng/ml and 50 μl of each was added to the appropriate wells.” left out, “runs.” for “runs. This program is used to calculate the IC50s by dividing the 0 ng/ml OD value by 2 and obtaining the concentration value from the curve for this OD.”
In a similar manner to that described above, the wells of a 96-well microtiter plate were coated with the IgG fraction of the antiserum raised to Immunogens I or II.
as §3, §5

[3] = tested on: IgG fraction of antiserum raised to Immunogen IV; details: Antibody to Immunogen IV; cross-reactants at 100 ng/ml; 1000 ng/ml; standard JWH-018
Procedure: as §1, §2
(§6) In a similar manner to that described above, the wells of a 96-well microtiter plate were coated with the IgG fraction of the antiserum raised to Immunogens IV, VII or VIII. Standard solutions (JWH-018 for Immunogens IV and VIII, JWH-015 for Immunogen VII) were prepared in TBST at 0, 1.25, 2.5, 5, 10, 20, 40 and 80 ng/ml and conjugate was employed as detection reagent.
as §3, §4, §5

[4] = tested on: IgG fraction of antiserum raised to Immunogen VIII; details: Antibody to Immunogen VIII; cross-reactants at 100 ng/ml; 1000 ng/ml; standard JWH-018
Procedure: as §1, §2, §6, §3, §4, §5

[5] = tested on: IgG fraction of antiserum raised to Immunogen VII; details: Antibody to Immunogen VII; cross-reactants at 100 ng/ml; 1000 ng/ml; standard JWH-015
Procedure: as §1, §2, §6, §3, §4, §5

Compound | % B/B0 [1] [%] | % B/B0 [2] [%] | % B/B0 [3] [%] | % B/B0 [4] [%] | % B/B0 [5] [%]
CCCCCCn1cc(C(=O)c2cccc3ccccc23)c2cc(O)ccc21 [JWH 019 5-hydroxyindole metabolite] | 19.81 | 17.34 | 93.84 | 101.57 | 87.58
CCCCCn1cc(C(=O)c2c(C)ccc3ccccc23)c2ccccc21 [JWH 122 2-methylnaphthyl isomer] | 33.35 | 27.14 | 26.13 | 61.74 | 85.37
CCCCn1cc(C(=O)c2cccc3ccccc23)c2cccc(O)c21 [7-OH JWH-073, JWH-073 7-hydroxyindole metabolite] | 5.59 | 46.05 | 96.95 | 94.04 | 61.78
CN1CCCCC1Cn1cc(C(=O)c2cccc3ccccc23)c2ccccc21 (stereo not shown) [AM-1220] | 4.45 | 77.46 | 86.93 | 106.65 | 49.71
O=C(O)CCCn1cc(C(=O)c2cccc3ccccc23)c2ccccc21 [JWH-073 N-butanoic acid metabolite] | 6.88 | 92.20 | 98.95 | 94.98 | 60.01
CCCCCn1cc(C(=O)c2cccc3cc(C)ccc23)c2ccccc21 [JWH 122 6-methylnaphthyl isomer] | 12.55 | 39.17 | 8.12 | 20.46 | 86.66
CCCCn1c(C)c(C(=O)c2cccc3ccccc23)c2ccccc21 [JWH-016] | 20.71 | 68.73 | 91.14 | 75.24 | 19.31
O=C(c1cccc2ccccc12)c1cn(CCCCO)c2ccccc12 [JWH-073 N-(4-hydroxybutyl) metabolite] | 3.22 | 60.01 | 52.61 | 57.99 | 48.81
O=C(c1cccc(I)c1)c1cn(CCCCCF)c2ccccc12 [AM-694 3-iodo isomer] | 31.37 | 48.58 | 37.20 | 12.71 | 89.49
CC(F)CCCn1cc(C(=O)c2cccc3ccccc23)c2ccccc21 (single isomer, unassigned) [AM-2201 N-(4-fluoropentyl) isomer] | 3.45 | 14.60 | 5.72 | 15.00 | 52.70
CCCC(C)n1cc(C(=O)c2cccc3ccccc23)c2ccccc21 (single isomer, unassigned) [JWH-018 N-(1-methylbutyl) isomer] | 12.42 | 51.92 | 73.49 | 63.22 | 67.71
CC(C)CCn1cc(C(=O)c2cccc3ccccc23)c2ccccc21 [JWH 018 N-(3-methylbutyl) isomer] | 3.16 | 30.38 | 12.75 | 53.29 | 48.81
CCCCCn1cc(C(=O)c2cccc3ccc(C)cc23)c2ccccc21 [JWH 122 7-methylnaphthyl isomer] | 36.46 | 38.28 | 13.48 | 38.48 | 92.44
O=C(c1cccc2ccccc12)c1cn(CCCC(O)CF)c2ccccc12 (stereo not shown) [AM-2201 N-(4-hydroxypentyl) metabolite] | 3.80 | 46.55 | 43.62 | 36.41 | 52.75
CCCCCn1cc(C(=O)c2ccccc2OC)c2ccccc21 [RCS-4 2-methoxy isomer] | 29.14 | 42.74 | 15.28 | 29.32 | 87.27
O=C(c1cccc2ccccc12)c1cn(CCN2CCOCC2)c2cc(O)ccc12 [JWH-200 6-hydroxyindole metabolite] | 7.27 | 61.65 | 94.41 | 83.20 | 65.52
CC(C)(C)Cn1cc(C(=O)c2cccc3ccccc23)c2ccccc21 [JWH-018 N-(2,2-dimethylpropyl) isomer] | 3.89 | 60.15 | 80.42 | 95.09 | 52.46
C=CCCCn1cc(C(=O)c2cccc3ccccc23)c2ccccc21 [JWH-022] | 4.51 | 11.72 | 10.61 | 28.94 | 58.44
CC(O)CCCn1cc(C(=O)c2cccc3ccccc23)c2ccccc21 (racemic) [(±)-JWH 018 N-(4-hydroxypentyl) metabolite] | 4.23 | 53.99 | 52.29 | 21.94 | 57.37
CCCCn1cc(C(=O)c2c(C)ccc3ccccc23)c2ccccc21 [JWH 073 2-methylnaphthyl analog] | 21.84 | 43.34 | 34.47 | 78.79 | 76.74
CCCCCCCn1cc(C(=O)c2cccc3ccccc23)c2ccccc21 [JWH-020] | 16.03 | 35.75 | 73.73 | 100.73 | 81.30
O=C(c1ccc(Cl)c2ccccc12)c1cn(CCCCCO)c2ccccc12 [JWH-398 N-(5-hydroxypentyl) metabolite] | 48.07 | 67.49 | 22.01 | 51.33 | 82.97
CC(O)CCn1cc(C(=O)c2cccc3ccccc23)c2ccccc21 (stereo not shown) [JWH-073 N-(3-hydroxybutyl) metabolite] | 3.10 | 54.52 | 53.52 | 94.04 | 43.39
